“Also recorded” adds a separate entry of the source. No end group written: not given here.
Assays:
[1] = tested on: human islets from non-diabetic or T2D cadaveric donors; test: Human islet insulin secretion assay; format: cell-based
Description: Human Islet Culture and Insulin Secretion Assays. Human islets were obtained through the Integrated Islet Distribution Program. On the day of arrival, islets were cultured overnight in RPMI containing 8 mM glucose, 10% heat-inactivated FBS, and 1X penicillin/streptomycin to confirm viability and sterility. Islets were cultured in 6 cm Petri dishes with approximately 1000 islet equivalents plated per dish. Islets were hand-picked and incubated an additional day in medium containing the desired concentration of glucose and/or xylitol before assaying for insulin secretion. Insulin secretion assays on human islets were performed identically to those described for mouse islets, except that 10 islets were used per replicate instead of 4.
Non-diabetic and T2D human islets were cultured for 48 hours in 8 mM glucose. A subset of the non-diabetic donor islets were also incubated with 0.5 mM xylitol, a glucose analog that is non-metabolizable beyond glucose-6 phosphate, during the final 24 hour culture period. […] Xylitol activates the FoxO1 transcription factor via glucose-6 phosphate formation, providing an alternative mechanism for up-regulating gene expression. Following 48 hours in culture, cellular insulin secretion was stimulated for 45 minutes with 16.7 mM glucose in the absence and presence of 10 μM L-798,106. Secreted insulin was normalized to total insulin content in order to determine the fractional release of insulin. Data from each human islet set was normalized to its own response in 16.7 mM glucose alone to isolate the effect of L-798,106 on GSIS (FIG. 6).

[2] = tested on: islets isolated from 10-week-old BTBR lean and Ob mice; test: Mouse islet glucose-stimulated insulin secretion (GSIS) assay; format: cell-based; details: for effect on GSIS from islets obtained from diabetic BTBR mice: diabetic (ob/ob) BTBR islets; for effect on GSIS from islets obtained from diabetic BTBR mice / effect on GSIS from islets obtained from non-diabetic mice: 16.7 mM glucose, PGE1 5 μM or L-798,106 20 μM, 1 hour static incubation; for effect on GSIS from islets obtained from non-diabetic mice: non-diabetic (lean) BTBR islets
Description: Mouse Islet Isolation & Culture. Intact pancreatic islets were isolated from 10-12-week-old BTBR lean and ob/ob mice using a known collagenase digestion protocol (Rabaglia et al., Am. J. Physiology Endo. Metab. 289:E218-224 (2005)). Instead of CO2 asphyxiation and decapitation, mice were Avertin-anesthetized and exsanguinated immediately prior to cannulation of the bile duct and inflation of the pancreas with a collagenase solution. Islets were cultured overnight in 5 ml RPMI 1640 containing 11.1 mM glucose and 10% heat-inactivated FBS with 1X penicillin/streptomycin prior to in vitro assay for insulin secretion and PGE2 production.
Mouse Islet Insulin Secretion and PGE2 Production Assays. Insulin secretion assays were performed in mesh-bottomed glass tubes essentially as in Rabaglia et al. (2005). Modifications include: 4 islets/replicate were picked into Krebs Ringer Bicarbonate Buffer (KRBB) containing 1.7 mM glucose and 0.25% BSA. Replicates were pre-incubated for 1 hour in fresh 1.7 mM KRBB before being transferred to stimulation medium containing the desired concentrations of glucose and drug treatment (e.g., PGE1, PGE2, and sulprostone [Sigma Aldrich] or L-798,106 [Tocris]). Insulin secretion as a percentage of total insulin content was determined using an in-house insulin ELISA, as described above.
As a first step in testing their hypothesis that the EP3 signaling pathway contributes to the pathophysiology of T2D, the Inventors subjected islets isolated from 10-week-old BTBR lean and Ob mice to treatment with a selective agonist (PGE1) or specific antagonist (L-798,106) of the EP3 receptor to monitor the impact on GSIS. Briefly, mouse islets were incubated in medium containing 1.7 mM glucose (non-stimulatory towards insulin secretion) or 16.7 mM glucose (stimulatory towards insulin secretion), with and without the addition of 5 μM PGE1 or 20 μM L-798,106.
GLP-1-based therapies are used in T2D therapy. To test the possibility that EP3 antagonism can augment the effect of GLP-1 agonism, islets from diabetic BTBR mice were treated with stimulatory glucose, with and without the addition of 50 nM GLP-1 and/or 10 μM […], and the level of insulin secretion monitored (FIG. 9).

Ins-1 832/3 cells = test: INS1 cell insulin secretion assay; format: cell-based, rat; details: for minimum dose yielding maximum effect on GSIS inhibition: 2 hour stimulation
Description: INS1 Cell Culture and Insulin Secretion Assays. The glucose responsive rat beta cell line, INS1 (832/3) was cultured in RPMI 1640 (11.1 mM glucose) supplemented with NaHCO3, HEPES, heat-inactivated FBS, L-glutamine, sodium pyruvate and β-mercaptoethanol. 3 days prior to assay, 1×10^5 cells were plated per well in 96-well cell culture plates. Twenty-four hours prior to the assay, the medium was aspirated and fresh growth medium added. On the day of the assay, confluent Ins-1 832/3 cells were washed once with sterile PBS and pre-incubated for 2 hours in KRBB supplemented with 25 mM HEPES and containing 1.7 mM glucose and 0.2% BSA. Cells were then stimulated for 2 hours with KRBB containing 16.7 mM glucose and the desired concentrations of agonists/antagonists. Secretion buffer was collected and the secreted and cellular insulin content determined by acid/ethanol extraction, as described above.
Insulin secretion assays in Ins-1 832/3 cells were performed wherein the dose of PGE2 (a physiological agonist of EP3) or sulprostone (an EP3-selective agonist) were varied over a wide concentration range. […] The minimum dose of sulprostone yielding maximum effect on GSIS inhibition was approximately 10 nM and the minimum dose of PGE2 was approximately 50 nM.

[3] = diabetic patients treated with sitagliptin; cited from earlier work

COc1ccc(Br)cc1S(=O)(=O)NC(=O)/C=C/c1ccccc1Cc1ccc2ccccc2c1 [L-798,106, (2E)-N-[(5-bromo-2-methoxyphenyl)sulfonyl]-3-[2-(2-naphthalenylmethyl)phenyl]-2-propenamide]
effect on insulin secretion from diabetic (T2D) human islets ([1]; T2D donor islets, 16.7 mM glucose, L-798,106 20 μM / 10 μM, 45 minute static incubation): can enhance insulin secretion; also recorded: differed significantly from responses of non-diabetic islets | effect on insulin secretion from non-diabetic human islets ([1]; non-diabetic donors 5-7, cultured in 8 mM glucose, 16.7 mM glucose stimulation, 45 minute static incubation): non-responsive | effect on insulin secretion from xylitol-incubated non-diabetic human islets ([1]; non-diabetic donors 5-7 incubated overnight in 8 mM glucose with 0.5 mM xylitol, 16.7 mM glucose stimulation, 45 minutes): effective to promote glucose dependent insulin secretion; also recorded: differed significantly from responses of non-diabetic islets | effect on GSIS from islets obtained from diabetic BTBR mice [2]: significantly altered insulin secretion; also recorded: enhanced GSIS | effect on GLP-1 dependent insulin secretion from diabetic BTBR islets ([2]; diabetic BTBR-ob/ob islets, 11.1 mM glucose, GLP-1 50 nM plus L-798,106 10 μM): augments GLP-1 dependent insulin secretion | effect on GSIS from islets obtained from non-diabetic mice [2]: had no effect on GSIS | EC50 (Ins-1 832/3 cells; Rattus norvegicus, INS1, in the presence of 50 nM PGE2 (maximal inhibitory concentration), 16.7 mM glucose, 2 hour static incubation, read-out: approximate EC50 for restoring insulin secretion): ~100 nM | reversal of sulprostone-dependent suppression of GSIS (Ins-1 832/3 cells; in the presence of 10 nM sulprostone, stimulatory glucose, dose response of L-798,106): reversed in a dose-dependent manner | reversal of PGE2-dependent suppression of insulin secretion (Ins-1 832/3 cells; in the presence of 50 nM PGE2, increasing concentrations of L-798,106, 16.7 mM glucose): restored maximal insulin secretion; also recorded: reversed in a dose-dependent manner

CCCCC[C@H](O)/C=C/[C@H]1[C@H](O)CC(=O)[C@@H]1CCCCCCC(=O)O [PGE1]
effect on GSIS from islets obtained from diabetic BTBR mice [2]: significantly altered insulin secretion; also recorded: reduced GSIS | effect on GSIS from islets obtained from non-diabetic mice [2]: had no effect

CCCCC[C@H](O)/C=C/[C@H]1[C@H](O)CC(=O)[C@@H]1C/C=C\CCCC(=O)O [PGE2]
IC50 (Ins-1 832/3 cells; 16.7 mM glucose, 2 hour static incubation, read-out: approximate IC50 for suppression of insulin secretion): ~10 nM | minimum dose yielding maximum effect on GSIS inhibition (Ins-1 832/3 cells; 16.7 mM glucose): approximately 50 nM | maximal reduction in insulin secretion (Ins-1 832/3 cells; 16.7 mM glucose, increasing concentrations, 2 hour static incubation): ~80% | inhibition of GSIS (dose dependence) (Ins-1 832/3 cells; 16.7 mM glucose, wide concentration range): dose-dependently suppresses insulin secretion; also recorded: dose-dependently inhibited GSIS

N[C@@H](CC(=O)N1CCn2c(nnc2C(F)(F)F)C1)Cc1cc(F)c(F)cc1F [sitagliptin]
diabetic patients who fail to achieve HbAlc target of <7% [3]: 35-60%

CS(=O)(=O)NC(=O)CCC/C=C\C[C@H]1C(=O)C[C@@H](O)[C@@H]1/C=C/[C@@H](O)COc1ccccc1 [sulprostone]
minimum dose yielding maximum effect on GSIS inhibition (Ins-1 832/3 cells; 16.7 mM glucose): approximately 10 nM

glucagon-like peptide 1 (HAEGTFTSDVSSYLEGQAAKEFIAWLVKGR; ends and bridges not checked; UniProt P01275 98-127, looked up) [GLP-1, hormone glucagon-like peptide 1]
effect of GLP-1 alone on insulin secretion from diabetic BTBR islets ([2]; diabetic BTBR islets, 11.1 mM glucose, GLP-1 50 nM): significant impact on insulin secretion

— patent publication US9381176B2, “E-prostanoid receptor, Ptger3, as a novel anti-diabetic therapeutic target” (Wisconsin Alumni Research Foundation, priority 2012, dated 2016)
